One block for each substance: values may come before it.
Tests used:
hRpn13_ΔMTT [1] = target: T1, hRpn13_ΔMTT (Homo sapiens, UniProt Q16186); experiment: 1H-15N HSQC NMR titration / chemical shift perturbation (CSP), 0.1 mM 15N-labeled hRpn13_ΔMTT with unlabeled peptide; type: binding; details: 20-fold molar excess peptide
T1 construct: recombinant plasmid of hRpn13 Pru (1–150) cloned into the pRSET vector; GST (N, cleaved yes); residual Gly-Ser (^cG-^dS) left after cleavage; made in house; host or cells: Escherichia coli BL21 (DE3); pGEX-4T-1 plasmid synthesized by GenScript (Addgene 237412)
Experimental: The similar spectral effects by adding ENT or ENT_M1S is readily apparent by quantifying and plotting the shifting across the Pru amino acid sequence (Supplementary Fig. 10b, c).
(§1) All ^1H-^15N HSQC experiments were acquired on samples dissolved in NMR buffer (20 mM sodium phosphate, pH 6.5, 50 mM NaCl, 1 mM TCEP, 10% D2O) unless specified, in which case 2 mM DTT replaced TCEP. The samples were purified in DTT-containing buffer and then exchanged into NMR buffer by using Zeba Protein Desalting columns (Thermo Fisher Scientific). The pH was measured and adjusted to 6.5. All NMR experiments were performed at 25 °C on a Bruker Advance 600 MHz spectrometer equipped with a cryogenically cooled probe. The data were processed by NMRpipe[46] (version 11.5) and spectra visualized and analyzed with NMR-FAM-SPARKY[47] (version 3.190) by using previous chemical shift assignments[12],[23] and NMRbox[48]. The amide nitrogen and hydrogen chemical shift perturbations (CSP) were mapped for each amino acid according to Eq. 1.1 CSP=0.2ΔδN2+ΔδH2
ΔδH, change in amide proton value (in parts per million); ΔδN, change in amide nitrogen value (in parts per million).
Supplementary Figure 9: 2D NMR experiments indicate ENT binding to hRpn13 Pru. a) ^1H-^15N HSQC spectrum of 0.1 mM ^15N-labeled hRpn13 (1-150, black) or hRpn13_ΔMTT (green). Select residues are labeled with amino acids in the Pru helix, proteasome binding region, and termini in blue, purple, and orange, respectively. Arrows indicate direction of shifting. b, c) ^1H-^15N HSQC spectra of 0.1 mM of ^15N-labeled hRpn13_ΔMTT alone (black) or with ENT present at equimolar (red), 2-fold (orange), 5-fold (yellow), 10-fold (green), 15-fold (blue), or 20-fold (purple) molar excess. […] All spectra were acquired at 600 MHz and 25°C in 20 mM sodium phosphate, pH 6.5, 100 mM NaCl, 1 mM TCEP, 10% D2O. ppm, part per million.

hRpn13_ΔMTT [2] = target: T1, hRpn13_ΔMTT; experiment: 1H-15N HSQC NMR, K48-diUb constructs with hRpn13_ΔMTT; type: binding; details: 100 μM 15N-hRpn13_ΔMTT, varying K48-diUb concentrations
Experimental: To test further whether peptide binding can influence hRpn13 Pru interaction with ubiquitin, we generated K48-linked diubiquitin in which the distal moiety (linked via G76) is extended by a 6-residue linker sequence of GSGGSG followed by either the ENT (K48-diUb^ENT) or EDGEGEE (K48-diUb^EDGEGEE) sequence. Varying concentrations of K48-diUb^ENT, K48-diUb^EDGEGEE, or K48-diUb^D77 were added to 100 μM ^15N-labeled hRpn13_ΔMTT and effects on hRpn13 monitored by recording ^1H-^15N HSQC spectra.
K48-diUb samples were produced by using a similar method as previously described. Briefly, Ub-D77 (proximal), Ub-ENT (proximal), Ub-EDGEGEE (proximal) and Ub-K48R (distal) were added at a final concentration of 0.8 mM to a reaction buffer (50 mM Tris pH 8.0, 5 mM MgCl2, 10 mM creatine phosphate, 0.6 U/mL inorg. PPase, 0.6 U/mL creatine kinase, 2 mM ATP) preincubated with 20 μM E2-25K. 0.1 μM E1 (R&D Systems) was added to this reaction system to initiate diUb synthesis, and it was left for 18 h at 37 °C. The reaction was quenched by dilution with 4 volumes of 50 mM sodium acetate (pH 4.5) and passed over a Mono S 5/50 GL column (GE Healthcare). Further purification was achieved by SEC on a HiLoad 16/600 Superdex 75 prep grade column (GE Healthcare) in buffer C.
as §1
Supplementary Figure 13: NMR experiments of hRpn13 Pru binding to K48-diUb^EDGEGEE, K48-diUb^ENT or K48-diUb^D77. a) ^1H-^15N HSQC spectrum of 0.1 mM ^15N-labeled hRpn13_ΔMTT alone (black) or with equimolar K48-diUb^EDGEGEE (blue), K48-diUb^ENT (red) or K48-diUb^D77 (green). Select residues are labeled. The spectra were acquired on a 600 MHz spectrometer equipped with a cryogenically cooled probe and at 25°C samples with samples dissolved in 20 mM sodium phosphate, pH 6.5, 100 mM NaCl, 1 mM TCEP, 10% D2O.

T1 sequence (Q16186 4-150, stated change not applied): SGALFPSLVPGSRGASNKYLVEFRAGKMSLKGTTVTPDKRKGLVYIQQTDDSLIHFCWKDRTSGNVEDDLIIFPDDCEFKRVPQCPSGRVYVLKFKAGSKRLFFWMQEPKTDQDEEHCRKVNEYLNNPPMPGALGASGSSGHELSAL

Substance: GPGSSTT [ENT_M1S, ENT M1 replaced with serine]
CSP A6 (hRpn13_ΔMTT [1]): 0.001673 | CSP A28 (hRpn13_ΔMTT [1]): 0.004472 | CSP A100 (hRpn13_ΔMTT [1]): 0.001095 | CSP A136 (hRpn13_ΔMTT [1]): 0.001 | CSP A139 (hRpn13_ΔMTT [1]): 0.001342 | CSP A149 (hRpn13_ΔMTT [1]): 0.001342 | CSP C60 (hRpn13_ΔMTT [1]): 0.004494 | CSP C80 (hRpn13_ΔMTT [1]): 0.0004472 | CSP C88 (hRpn13_ΔMTT [1]): 0.005727 | CSP C121 (hRpn13_ΔMTT [1]): 0.01167 | CSP D41 (hRpn13_ΔMTT [1]): 0.0008944 | CSP D53 (hRpn13_ΔMTT [1]): 0.002049 | CSP D54 (hRpn13_ΔMTT [1]): 0.003347 | CSP D63 (hRpn13_ΔMTT [1]): 0.004919 | CSP D71 (hRpn13_ΔMTT [1]): 0.004147 | CSP D72 (hRpn13_ΔMTT [1]): 0.004583 | CSP D78 (hRpn13_ΔMTT [1]): 0.00502 | CSP D79 (hRpn13_ΔMTT [1]): 0.004472 | CSP D115 (hRpn13_ΔMTT [1]): 0.005385 | CSP D117 (hRpn13_ΔMTT [1]): 0.02256 | CSP E25 (hRpn13_ΔMTT [1]): 0.004472 | CSP E70 (hRpn13_ΔMTT [1]): 0.002683 | CSP E81 (hRpn13_ΔMTT [1]): 0.003715 | CSP E111 (hRpn13_ΔMTT [1]): 0.01001 | CSP E118 (hRpn13_ΔMTT [1]): 0.03156 | CSP E119 (hRpn13_ΔMTT [1]): 0.0177 | CSP E146 (hRpn13_ΔMTT [1]): 0.005177 | CSP F8 (hRpn13_ΔMTT [1]): 0.0004472 | CSP F26 (hRpn13_ΔMTT [1]): 0.01613 | CSP F59 (hRpn13_ΔMTT [1]): 0.004583 | CSP F76 (hRpn13_ΔMTT [1]): 0.008012 | CSP F82 (hRpn13_ΔMTT [1]): 0.002683 | CSP F98 (hRpn13_ΔMTT [1]): 0.005459 | CSP F106 (hRpn13_ΔMTT [1]): 0.003715 | CSP F107 (hRpn13_ΔMTT [1]): 0.002049 | CSP G5 (hRpn13_ΔMTT [1]): 0 | CSP G17 (hRpn13_ΔMTT [1]): 0.002236 | CSP G29 (hRpn13_ΔMTT [1]): 0.0008944 | CSP G45 (hRpn13_ΔMTT [1]): 0.003715 | CSP G67 (hRpn13_ΔMTT [1]): 0.005899 | CSP G91 (hRpn13_ΔMTT [1]): 0.001673 | CSP G101 (hRpn13_ΔMTT [1]): 0.001789 | CSP G135 (hRpn13_ΔMTT [1]): 0.002049 | CSP G138 (hRpn13_ΔMTT [1]): 0.002049 | CSP G141 (hRpn13_ΔMTT [1]): 0.001789 | CSP G144 (hRpn13_ΔMTT [1]): 0.0008944 | CSP H58 (hRpn13_ΔMTT [1]): 0.00743 | CSP H120 (hRpn13_ΔMTT [1]): 0.04026 | CSP H145 (hRpn13_ΔMTT [1]): 0.04954 | CSP I49 (hRpn13_ΔMTT [1]): 0.003286 | CSP I57 (hRpn13_ΔMTT [1]): 0.003286 | CSP I75 (hRpn13_ΔMTT [1]): 0 | CSP K21 (hRpn13_ΔMTT [1]): 0.001095 | CSP K30 (hRpn13_ΔMTT [1]): 0.007668 | CSP K34 (hRpn13_ΔMTT [1]): 0.002049 | CSP K42 (hRpn13_ΔMTT [1]): 0.002191 | CSP K62 (hRpn13_ΔMTT [1]): 0.001789 | CSP K83 (hRpn13_ΔMTT [1]): 0.00634 | CSP K97 (hRpn13_ΔMTT [1]): 0.001 | CSP K99 (hRpn13_ΔMTT [1]): 0.002049 | CSP K103 (hRpn13_ΔMTT [1]): 0.001673 | CSP K113 (hRpn13_ΔMTT [1]): 0.004472 | CSP K123 (hRpn13_ΔMTT [1]): 0.00743 | CSP L7 (hRpn13_ΔMTT [1]): 0.001 | CSP L11 (hRpn13_ΔMTT [1]): 0.0008944 | CSP L23 (hRpn13_ΔMTT [1]): 0.001095 | CSP L33 (hRpn13_ΔMTT [1]): 0.002408 | CSP L46 (hRpn13_ΔMTT [1]): 0.002049 | CSP L56 (hRpn13_ΔMTT [1]): 0.004099 | CSP L73 (hRpn13_ΔMTT [1]): 0.002049 | CSP L96 (hRpn13_ΔMTT [1]): 0.0004472 | CSP L105 (hRpn13_ΔMTT [1]): 0.001095 | CSP L128 (hRpn13_ΔMTT [1]): 0.003131 | CSP L137 (hRpn13_ΔMTT [1]): 0.001673 | CSP L147 (hRpn13_ΔMTT [1]): 0.004494 | CSP L150 (hRpn13_ΔMTT [1]): 0.001673 | CSP M31 (hRpn13_ΔMTT [1]): 0 | CSP M109 (hRpn13_ΔMTT [1]): 0.003286 | CSP M133 (hRpn13_ΔMTT [1]): 0.002 | CSP N20 (hRpn13_ΔMTT [1]): 0 | CSP N68 (hRpn13_ΔMTT [1]): 0.001789 | CSP N125 (hRpn13_ΔMTT [1]): 0.003347 | CSP N129 (hRpn13_ΔMTT [1]): 0.003 | CSP N130 (hRpn13_ΔMTT [1]): 0.002683 | CSP Q50 (hRpn13_ΔMTT [1]): 0.001095 | CSP Q51 (hRpn13_ΔMTT [1]): 0.001 | CSP Q87 (hRpn13_ΔMTT [1]): 0.008295 | CSP R16 (hRpn13_ΔMTT [1]): 0 | CSP R27 (hRpn13_ΔMTT [1]): 0.008112 | CSP R43 (hRpn13_ΔMTT [1]): 0.0008944 | CSP R64 (hRpn13_ΔMTT [1]): 0.003 | CSP R84 (hRpn13_ΔMTT [1]): 0 | CSP R92 backbone (hRpn13_ΔMTT [1]): 0.002449 | CSP R92 sidechain (hRpn13_ΔMTT [1]): 0.01312 | CSP R104 (hRpn13_ΔMTT [1]): 0.004099 | CSP R122 (hRpn13_ΔMTT [1]): 0.006768 | CSP S4 (hRpn13_ΔMTT [1]): 0.003715 | CSP S10 (hRpn13_ΔMTT [1]): 0.001 | CSP S15 (hRpn13_ΔMTT [1]): 0.002236 | CSP S19 (hRpn13_ΔMTT [1]): 0.002049 | CSP S32 (hRpn13_ΔMTT [1]): 0.001095 | CSP S55 (hRpn13_ΔMTT [1]): 0.001342 | CSP S66 (hRpn13_ΔMTT [1]): 0.001 | CSP S102 (hRpn13_ΔMTT [1]): 0.001342 | CSP S140 (hRpn13_ΔMTT [1]): 0.001095 | CSP S142 (hRpn13_ΔMTT [1]): 0.001342 | CSP S143 (hRpn13_ΔMTT [1]): 0.002049 | CSP S148 (hRpn13_ΔMTT [1]): 0.0004472 | CSP T36 (hRpn13_ΔMTT [1]): 0.001342 | CSP T37 (hRpn13_ΔMTT [1]): 0.002191 | CSP T39 (hRpn13_ΔMTT [1]): 0.002683 | CSP T52 (hRpn13_ΔMTT [1]): 0.001095 | CSP T65 (hRpn13_ΔMTT [1]): 0.001342 | CSP T114 (hRpn13_ΔMTT [1]): 0.01524 | CSP V12 (hRpn13_ΔMTT [1]): 0.002049 | CSP V24 (hRpn13_ΔMTT [1]): 0 | CSP V47 (hRpn13_ΔMTT [1]): 0.002683 | CSP V69 (hRpn13_ΔMTT [1]): 0.003715 | CSP V93 (hRpn13_ΔMTT [1]): 0.006542 | CSP V95 (hRpn13_ΔMTT [1]): 0.003131 | CSP V124 (hRpn13_ΔMTT [1]): 0.007759 | CSP W61 (hRpn13_ΔMTT [1]): 0.009165 | CSP W108 (hRpn13_ΔMTT [1]): 0.004025 | CSP Y22 (hRpn13_ΔMTT [1]): 0.001095 | CSP Y48 (hRpn13_ΔMTT [1]): 0.002864 | CSP Y94 (hRpn13_ΔMTT [1]): 0.002449 | CSP Y127 (hRpn13_ΔMTT [1]): 0.004382

ubiquitin contact surface binding (HSQC) (hRpn13_ΔMTT [2]): binding to ubiquitin was observed
Substance: K48-diUb^D77: K48-linked diubiquitin from Ub-D77 (proximal) and Ub-K48R (distal) [reference compound]
